Source: US20220048878A1, “IMPROVEMENT IN OR RELATING TO ORGANIC COMPOUNDS” (GIVAUDAN SA, priority 2018, published 2022)
Like-named read-outs stand apart in the source and are kept apart here.

Assays:
male rats [1] = conditions: cited from earlier work
[2] = cited from earlier work
male rats [3] = experiment: Repeated dose 28-day oral toxicity study in rats (OECD Guideline 407), reproductive organs and sperm analysis; format: in vivo; conditions: for Motile Sperms (%) / Sperm cells with normal morphology (count/total) / Sperm cells with normal morphology (percent) / Number of sperms per gram: male rats
Experimental: An isomeric mixture obtained according to Example 1 b was tested in a repeated dose 28-day oral toxicity study in rats according to OECD Guideline 407 (OECD, Paris, October 2008). Groups of animals (n=5) were fed with a diet containing the test item to obtain a daily ingested dose of 100 mg/kg body weight/day, 300 mg/kg body weight/day and 1000 mg/kg body weight/day. The animals were treated for 28 days. After this period, they were sacrificed and their organs were examined by pathological examination for gross lesions, weight changes and further investigated by histopathology. The seminal fluid from the epididymis was sampled and analyzed microscopically for number, morphology and motility of sperms.
All treated groups were compared to the control group with a Dunnett-test based on pooled variance and a Steel-test.

[4] = male rats, 1000 mg/kg body weight per day
[5] = male rats, 300 or 1000 mg/kg body weight per day
[6] = rats, 100, 300 and 1000 mg/kg body weight/day, 28 days

In the case of `CC(C)=CC1CC(C)CCO1` (racemic) [Rose Oxide, 4-methyl-2-(2-methylprop-1-en-1-yl)tetrahydro-2H-pyran], the “Effects on sperm formation” value (male rats [1]; 28 days, OECD guideline 407, middle (300 mg/kg bw/d) and high (1000 mg/kg bw/d) dose) is given as “clear-cut effects on sperm formation”, the “Classification (REACH/ECHA)” value (male rats [1]; classification provided by companies to ECHA) is given as “CMR2” and the “Severity of immature ducts in distal corpus and/or cauda epididymis (histopathology)” value (male rats [1]; male rats, 300 mg/kg body weight per day) is given as “minimal to slight”. For the same molecule, the “Severity of immature ducts in distal corpus and/or cauda epididymis (histopathology)” value (male rats [1]; [4]) was “slight to severe”, the “Weight increase of the epididymis, absolute” value (male rats [1]; [4]) was 33% and the “Weight increase of the epididymis, relative” value (male rats [1]; [4]) was 26%. For the same molecule, the “Sperm function and morphology in the cauda epididymis” value (male rats [1]; [5]) was “adversely affected”, the Sperm numbers (male rats [1]; [5]) was “significantly reduced” and the “Time to evaporate on a smelling strip” value ([2]; smelling strip) was no more than 30 min.

In the case of `CCC(C)=C[C@@H]1C[C@H](C)CCO1` (relative stereo) [rel-(2S,4R)-4-methyl-2-(2-methylbut-1-en-1-yl)tetrahydro-2H-pyran], the “Suppression of sperm formation” value (male rats [3]; rats) is reported as “does not suppress sperm formation”.

For `CC1CCOC(c2ccccc2)C1` (stereo not drawn) [Doremox®, 4-methyl-2-phenyltetrahydro-2H-pyran], the “Lastingness compared to Rose Oxide” value ([2]; background statement) is given as “too long-lasting compared to Rose Oxide”.

For `CCC(C)=CC1CC(C)CCO1` (stereo not drawn) [Example 1b, 4-methyl-2-(2-methylbut-1-en-1-yl)tetrahydro-2H-pyran], the “Effect on key parameters of male fertility” value (male rats [3]; 28 days, up to 1000 mg/kg bw/d) was “no effect”, the “Difference in sperm parameters between control group and treated groups” value (male rats [3]; Dunnett-test and Steel-test, p=0.05 significance level) was “No significant differences” and the “Motile Sperms (%)” value (male rats [3]; 100 mg/kg bw/d, 28 days) was 63 ± 12%. The “Sperm cells with normal morphology (count/total)” value (male rats [3]; 100 mg/kg bw/d, 28 days) was 156/246, the “Sperm cells with normal morphology (percent)” value (male rats [3]; 100 mg/kg bw/d, 28 days) was “(63.4%)” and the “Motile Sperms (%)” value (male rats [3]; 300 mg/kg bw/d, 28 days) was 47 ± 13%. For the same molecule, the “Sperm cells with normal morphology (count/total)” value (male rats [3]; 300 mg/kg bw/d, 28 days) was 170/210, the “Sperm cells with normal morphology (percent)” value (male rats [3]; 300 mg/kg bw/d, 28 days) was “(81.0%)” and the “Motile Sperms (%)” value (male rats [3]; 1000 mg/kg bw/d, 28 days) was 53 ± 23%. The “Sperm cells with normal morphology (count/total)” value (male rats [3]; 1000 mg/kg bw/d, 28 days) was 158/197, the “Sperm cells with normal morphology (percent)” value (male rats [3]; 1000 mg/kg bw/d, 28 days) was “(80.2%)” and the “Number of sperms per gram” value (male rats [3]; n = 5, 100 mg/kg bw/d in diet, 28 days) was 3.9 ± 0.9 × 10^8. The “Number of sperms per gram” value (male rats [3]; n = 5, 300 mg/kg bw/d in diet, 28 days) was 4.0 ± 0.9 × 10^8, the “Number of sperms per gram” value (male rats [3]; n = 5, 1000 mg/kg bw/d in diet, 28 days) was 4.0 ± 1.9 × 10^8 and the “Macroscopic changes to reproductive organs” value (male rats [3]; [6]) was “no macroscopic changes”. The “Weight of the reproductive organs versus control group” value (male rats [3]; [6]) was “not different from the control group”.
